Laboratory results: patent publication US20180193412A1, “Method of In Vivo Treatment” (Hexima Limited, priority 2015, published 2018)

Key:
E. coli = assay type: cell-based, Escherichia coli; settings: for IC50: Mueller-Hinton Broth, 37° C., 18 hours, up to 20 μM, read-out: IC50 against E. coli; for Inhibition of growth of E. coli: at the concentrations tested (0.3125-20 μM)
Method: (§1) A single E. coli or B. subtilis colony was used to inoculate 5 ml of Luria-Bertani media and grown overnight at 37° C. The following day, the optical density of the culture was measured and the bacteria diluted to an optical density at 600 nm (OD600) of 0.01 in Mueller-Hinton Broth. Diluted E. coli or B. subtilis were added to 96-well plates with defensins at concentrations of 20 μM, 10 μM, 5 μM, 2.5 μM, 1.25 μM, 0.625 μM or 0.3125 μM. Plates were read at OD595 to obtain time zero data points. Plates were incubated at 37° C. for 18 hours before reading again at OD595 to assess the amount of bacterial growth.

A. flavus = test: Inhibition of growth of A. flavus, Example 2 antifungal assay; assay type: cell-based; settings: ½ strength PDB, 30° C., A595
Method: (§2) The inhibitory effects of the plant defensins on the growth of Candida albicans, Aspergillus fumigatus (obtained from the National Mycology Reference Centre, South Australia Pathology at the Women's and Children's Hospital, Adelaide, Australia), C. glabrata, C. tropicalis, A. flavus, A. niger, A. fumigants, Cryptococcus neoformans and C. gattii (obtained from Dee Carter, University of Sydney, New South Wales, Australia) are measured essentially as described by Broekaert et al. (1990) FEMS Microbiol Lett 69:55-59.
(§3) Spores of A. flavus. A. niger and A. fumigatus are isolated from sporulating fungus growing on ½ strength Sabouraud dextrose agar. Spores were removed from the plates by the addition of ½ strength potato dextrose broth (PDB). C. albicans, C. glabrata, C. tropicalis, C. neoformans and C. gattii cells are grown in Yeast Peptone Broth (YPD) for 16 h. Spore and cell concentrations are measured using a hemocytometer.
(§4) Antifungal assays are conducted in 96 well microtitre plates essentially as herein described. Wells are loaded with 20 μL of filter sterilized (0.22 μm syringe filter, Millipore) defensin (10× stock for each final concentration) or water and 80 μL of 5×10^4 spores/mL (A. flavus, A. niger, A. fumigatus), 5,000 cells/mL (C. albicans, C. glabrata, C. tropicalis) or 1×10^6 cells/mL (C. neoformans, C. gattii) in ½ strength PDB. The plates are incubated at 30° C. Fungal growth is assayed by measuring optical density at 595 nm (A595) using a microtitre plate reader (SpectraMax Pro M2; Molecular Devices. Growth is allowed to proceed until the optical density (OD) of the fungus in the absence of any test defensin reached an OD of 0.2. Each test is performed in duplicate.

A. fumigatus = test: Inhibition of growth of Aspergillus fumigatus, Example 2 antifungal assay; assay type: cell-based; settings: ½ strength PDB, 30° C., A595
Method: as §2, §3, §4

C. neoformans = test: Inhibition of growth of Cryptococcus neoformans, Example 2 antifungal assay; assay type: cell-based; settings: ½ strength PDB, 30° C., A595
Method: as §2, §3, §4

C. gattii = test: Inhibition of growth of C. gattii, Example 2 antifungal assay; assay type: cell-based; settings: ½ strength PDB, 30° C., A595
Method: as §2, §3, §4

T. albicans = test: Inhibition of growth of C. albicans by plant defensins, Example 1 (microtitre A595 antifungal assay); assay type: cell-based; settings: for IC50 against T. albicans: Table 3, ½ strength PDB, 30° C., A595
Method: (§5) The inhibitory effects of the plant defensins on the growth of Trichophyton rubrum, T. interdigitale, Microsporum fulvum and C. albicans (all obtained from the National Mycology Reference Centre, South Australia Pathology at the Women's and Children's Hospital, Adelaide, Australia) are measured essentially as described by Broekaert et al. (1990) FEMS Microbiol Lett 69:55-59.
(§6) Spores of T. rubrum, T. interdigitale and M. fulvum are isolated from sporulating fungus growing on ½ strength Sabouraud dextrose agar. Spores were removed from the plates by the addition of ½ strength potato dextrose broth (PDB). C. albicans cells are grown in Yeast Peptone Broth (YPD) for 16 h. Spore and cell concentrations are measured using a hemocytometer.
as §4, with “Ξ m” for “μm”, “(T. rubrum, T. interdigitale, M. fulvum) or” for “(A. flavus, A. niger, A. fumigatus),”, “albicans)” for “albicans, C. glabrata, C. tropicalis) or 1×10^6 cells/mL (C. neoformans, C. gattii)”

C. tropicalis = test: Inhibition of growth of C. tropicalis, Example 2 antifungal assay; assay type: cell-based; settings: ½ strength PDB, 30° C., A595
Method: as §2, §3, §4

B. subtilis = test: Inhibition of the growth of Bacillus subtilis (OD595, 18 hours); assay type: cell-based; settings: for IC50: Mueller-Hinton Broth, 37° C., 18 hours, up to 20 μM, read-out: IC50 against B. subtilis; for Inhibition of growth of B. subtilis: at the concentrations tested (0.3125-20 μM)
Method: as §1

A. niger = test: Inhibition of growth of A. niger, Example 2 antifungal assay; assay type: cell-based; settings: ½ strength PDB, 30° C., A595
Method: as §2, §3, §4

C. albicans = test: Inhibition of growth of Candida albicans, Example 2 antifungal assay; assay type: cell-based; settings: Table 4; ½ strength PDB, 30° C., A595
Method: as §2, §3, §4

M. fulvum = test: Inhibition of growth of Microsporum fulvum by plant defensins (microtitre A595 antifungal assay); assay type: cell-based; settings: for IC50 against M. fulvum: ½ strength PDB, 30° C., A595
Method: as §5, §6
as §4, with “Ξ m” for “μm”, “(T. rubrum, T. interdigitale, M. fulvum) or” for “(A. flavus, A. niger, A. fumigatus),”, “albicans)” for “albicans, C. glabrata, C. tropicalis) or 1×10^6 cells/mL (C. neoformans, C. gattii)”

C. glabrata = test: Inhibition of growth of C. glabrata, Example 2 antifungal assay; assay type: cell-based; settings: ½ strength PDB, 30° C., A595
Method: as §2, §3, §4

[1] = test system: Trichophyton rubrum, T. interdigitale, Microsporum fulvum and C. albicans; test: Inhibition assays of Example 1, summary across the range of fungal pathogens; assay type: cell-based; settings: summary of Table 3, at the concentrations tested
Method: as §5, §6
as §4, with “Ξ m” for “μm”, “(T. rubrum, T. interdigitale, M. fulvum) or” for “(A. flavus, A. niger, A. fumigatus),”, “albicans)” for “albicans, C. glabrata, C. tropicalis) or 1×10^6 cells/mL (C. neoformans, C. gattii)”

T. rubrum = test: Inhibition of growth of Trichophyton rubrum by plant defensins (microtitre A595 antifungal assay); assay type: cell-based; settings: ½ strength PDB, 30° C.
Method: as §5, §6
as §4, with “Ξ m” for “μm”, “(T. rubrum, T. interdigitale, M. fulvum) or” for “(A. flavus, A. niger, A. fumigatus),”, “albicans)” for “albicans, C. glabrata, C. tropicalis) or 1×10^6 cells/mL (C. neoformans, C. gattii)”

| Molecule | IC50 (E. coli) | Inhibition of growth of E. coli (E. coli) | IC50 against A. flavus (A. flavus) | IC50 against A. fumigatus (A. fumigatus) | IC50 against C. neoformans (C. neoformans) | IC50 against C. gattii (C. gattii) | IC50 against T. albicans (T. albicans) | IC50 against C. tropicalis (C. tropicalis) | IC50 (B. subtilis) | Inhibition of growth of B. subtilis (B. subtilis) | IC50 against A. niger (A. niger) | IC50 against C. albicans (C. albicans) | IC50 against M. fulvum (M. fulvum) | IC50 against C. glabrata (C. glabrata) | Activity across the range of fungal pathogens [1] | IC50 against T. rubrum (T. rubrum) | Inhibition of C. albicans (T. albicans; summary of Table 3) | Inhibition of M. fulvum (M. fulvum; summary of Table 3) |
| --- | --- | --- | --- | --- | --- | --- | --- | --- | --- | --- | --- | --- | --- | --- | --- | --- | --- | --- |
| HXL003: Class I plant defensin from Triticum aestivum (ARDCTSQSHKFVGLCLSDRNCASVCLTEYFTGGKCDHRRCVCTKGC; HXL003 Triticum aestivum) | > 20 µM | did not inhibit the growth | >100 mg/L | >100 mg/L | 3 mg/L | 20 mg/L | >100 mg/L | 8 mg/L | > 20 µM | did not inhibit the growth | >100 mg/L | >100 mg/L | >100 mg/L | >100 mg/L | – | – | – | – |
| HXL001: Class I plant defensin from Zea mays (RHCLSQSHRFKGLCMSSNNCANVCQTENFPGGECKAEGATRKCFCKKIC; HXL001 Zea mays) | > 20 µM | did not inhibit the growth | >100 mg/L | >100 mg/L | 10 mg/L | 40 mg/L | 35 mg/L | 6 mg/L | > 20 µM | did not inhibit the growth | >100 mg/L | 35 mg/L | >100 mg/L | 32 mg/L | did not display any activity | >100 mg/L | – | – |
| CC[C@H](C)[C@H](NC(=O)[C@H](CCCCN)NC(=O)[C@H](CCC(=O)O)NC(=O)[C@H](CCCCN)NC(=O)[C@H](CO)NC(=O)[C@H](CCCCN)NC(=O)[C@H](CCCNC(=N)N)NC(=O)[C@H](Cc1ccccc1)NC(=O)[C@H](Cc1ccccc1)NC(=O)[C@H](CC(=O)O)NC(=O)CNC(=O)[C@H](CC(C)C)NC(=O)[C@@H](N)CC(C)C)C(=O)NCC(=O)N[C@@H](CCCCN)C(=O)N[C@@H](CCC(=O)O)C(=O)N[C@@H](Cc1ccccc1)C(=O)N[C@@H](CCCCN)C(=O)N[C@@H](CCCNC(=N)N)C(=O)N[C@H](C(=O)N[C@H](C(=O)N[C@@H](CCC(N)=O)C(=O)N[C@@H](CCCNC(=N)N)C(=O)N[C@H](C(=O)N[C@@H](CCCCN)C(=O)N[C@@H](CC(=O)O)C(=O)N[C@@H](Cc1ccccc1)C(=O)N[C@@H](CC(C)C)C(=O)N[C@@H](CCCNC(=N)N)C(=O)N[C@@H](CC(N)=O)C(=O)N[C@@H](CC(C)C)C(=O)N[C@H](C(=O)N1CCC[C@H]1C(=O)N[C@@H](CCCNC(=N)N)C(=O)N[C@H](C(=O)N[C@@H](CCC(=O)O)C(=O)N[C@@H](CO)C(=O)O)[C@@H](C)O)C(C)C)[C@@H](C)CC)C(C)C)[C@@H](C)CC [LL37, reference compound] | 2.5 µM | – | – | – | – | – | – | – | – | – | – | – | – | – | – | – | – | – |
| HXL009: Class I plant defensin from Zea mays (TVCMRHNNFYHGPCMSNKDCANSCVQHNLGVGGYCRGKIPFNKECMCTFEC; HXL009 Zea mays) | > 20 µM | – | >100 mg/L | >100 mg/L | 8 mg/L | 38 mg/L | >100 mg/L | 12 mg/L | > 20 µM | – | >100 mg/L | >100 mg/L | >100 mg/L | >100 mg/L | did not display any activity | – | – | – |
| HXL002: Class I plant defensin from Triticum aestivum (RDCLSQSHKFKGACLSSSNCAAVCRTENFPDGECHTHNFARKCFCKRAC; HXL002 Triticum aestivum) | > 20 µM | did not inhibit the growth | – | 25 mg/L | 2.5 mg/L | 18 mg/L | 35 mg/L | 2 mg/L | > 20 µM | did not inhibit the growth | 20 mg/L | 35 mg/L | 50 mg/L | 15 mg/L | – | – | very poor inhibitors | very poor inhibitors |
| HXL013: Class I plant defensin from Glycine max (KDCLTRRHGFQGRCLFDRQCAHVCRSDGFIGGQCRGPLRKCFCSRPC; HXL013 Glycine max) | > 20 µM | – | >100 mg/L | >100 mg/L | 9 mg/L | 22 mg/L | 20 mg/L | 12 mg/L | 10 µM | – | >100 mg/L | 20 mg/L | 5.5 mg/L | 25 mg/L | intermediate activity | 22 mg/L | – | – |
